Source: patent US4800201A, “1,4-thiazine derivative, and cardiotonic agent comprising it as effective component” (Zenyaku Kogyo Kabushiki Kaisha, priority 1984, dated 1989)

Key:
[1] = system: isolated left atrium of guinea pig; assay: Effect on isolated left atrium of guinea pig (Pharmacological Test 1, Table 1); parameters: species or system guinea pig (male Hartley); settings: 1×10^-4 mole, electrically stimulated 0.5 cps, 30° to 32° C.
Protocol: Effect on isolated left atrium of guinea pig was tested according to the method described in Basic Lectures of Medicine Development, Volume V, Pharmacological Test Methods, Part 2, page 534 (1971) published by Chizin Shokan Kabushiki Kaisha in Japan. A 7-weeks-old male Hartley guinea pig (having body weight of about 350 g) was stunned by a blow on the head. The heart was cut out, and the left atrium was taken out in Krebs-Henseleit solution (prepared by adding distilled water for injection to 6.92 g of sodium chloride, 0.35 g of potassium chloride, 0.28 g of calcium chloride, 0.29 g of magnesium sulfate, 0.16 g of mono-basic potassium phosphate, 2.1 g of sodium bicarbonate and 1.8 g of glucose so that the total amount was 1000 ml) which was sufficiently bubbled with oxygen gas. The isolated left atrium was suspended in Magnus' bath at 30° to 32° C. and isometric contraction was recorded by the pen-writing oscillograph through the strain pressure amplifier connected to the force displacement pickup.
The atrium was stimulated electrically at 0.5 cps for 5 msec under a voltage of 20% above threshold. The nutritive liquid was Krebs-Henseleit solution through which 95% oxygen gas and 5% carbon dioxide was blown. Effect of each sample was tested 60 to 90 minutes after stimulation at which the generated tension became stable. In this test, corresponding concentration of each sample was 1×10^-4 mole.

[2] = Acute toxicity, Litchfield-Wilcoxon method (Pharmacological Test 3, Table 3); settings: mouse, in vivo, ip; intraperitoneal injection, 6-weeks-old male ddY mice
Protocol: The acute toxicity was determined according to the Litchfield-Wilcoxon method, J. Pharm. Exp. Ther., 96, 99 […] using 6-weeks-old male ddY mice (having body weight of 19-24 g) while administrating the sample compound in intraperitonial injection.

isolated auricule = assay: Effect on isolated auricule (Pharmacological Test 2, Table 2); parameters: species or system guinea pig (male Hartley); settings: 3×10^-4 mole, 30°±1° C., recording 5 minutes; for activation at 300 µM: Cavia porcellus, 5 min, read-out: Increase in heart rate
Protocol: Effect on isolated auricule was tested according to the method of L. J. Mcleod described in Pharmacological Experiments on Intact Preparations, pages 112-115 (1970). A 7-weeks-old male Hartley guinea pig (having body weight of about 350 g) was killed by a blow on the head. The heart was cut out, and all the tissues except for the auricule were cut away in Ringer-Locke solution (prepared by adding distilled water for injection to 9.0 g of sodium chloride, 0.25 g of potassium chloride, 0.15 g of calcium chloride and 1.0 g of glucose so that the total amount was 1000 ml). One of cotton threads, which were tied to each tip of the auricule, is attached to Magnus' bath and the other to the force displacement pickup. The Magnus' bath was maintained at 30°±1° C. through which oxygen gas was bubbled. When the rhythmic movement and contraction of cardiac muscle became constant, recording by the pen-writing oscillograph was started. After 1 minute, sample compound was injected and recording was conducted for 5 minutes. After completion of recording, the isolated auricule was washed with Ringer-Locke solution until the rhythmic movement and contraction of cardiac muscle became constant. After 30 minutes, recording by the pen-writing oscillograph was started again. In this test, corresponding concentration of each sample was 3×10^-4 mole.

SMILES | Tension increment [1] | LD50 [2] | Tension increment (isolated auricule) | activation at 300 µM (isolated auricule)
CC1=C(c2ccnnc2)SCC(=O)N1 | 225 ± 123 mg | – | – | –
CC1=C(c2ccncc2Cl)SCC(=O)N1 | 426 ± 56 mg | – | – | –
CC1=C(c2ccncc2C=O)SCC(=O)N1 | 278 ± 56 mg | – | – | –
CC1=C(c2ccncc2C#N)SCC(=O)N1 | 214 ± 56 mg | – | – | –
CC1=C(c2ccncc2)SC(c2ccc(O)cc2)C(=O)N1 (stereo not shown) | 230 ± 92 mg | – | – | –
CC1=C(c2ccncc2)SC(N2CCOCC2)C(=O)N1 (stereo not shown) | 207 ± 47 mg | – | – | –
CC1=C(c2ccncc2)SC(C)C(=O)N1 (stereo not shown) [2,5-dimethyl-6-(4-pyridinyl)-2H-1,4-thiazin-3(4H)-one] | 780 ± 93 mg | 230 mg/kg | 158 mg | 2%
CCC1SC(c2ccncc2)=C(C)NC1=O (stereo not shown) [2-ethyl-5-methyl-6-(4-pyridinyl)-2H-1,4-thiazin-3(4H)-one] | 925 ± 32 mg | 130 mg/kg | 226 mg | 2.4%
CNC1SC(c2ccncc2)=C(C)NC1=O (stereo not shown) [5-methyl-2-methylamino-6-(4-pyridinyl)-2H-1,4-thiazin-3(4H)-one] | 233 ± 46 mg | – | – | –
CC1=C(c2ccnc3ccccc23)SCC(=O)N1 [drawing 13] | 300 ± 125 mg | – | – | –
CC1=C(c2ccnc3ccccc23)SCC(=O)N1 [drawing 25] | – | – | 190 mg | 2.2%
CC1=C(c2ccncc2)SCC(=O)N1 [drawing 26] | – | – | 250 mg | 9.4%
CC1=C(c2ccnc3ccccc23)SCC(=O)N1 [drawing 29] | – | 270 mg/kg | – | –
CC1=C(c2ccncc2)SCC(=O)N1 [drawing 30] | – | 275 mg/kg | – | –
